The values below come from ChEMBL document CHEMBL3352226, “Synthesis of novel derivatives of 4-methylbenzimidazole and evaluation of their biological activities” (Eur J Med Chem, 2014).

Data set [1] is described as follows: Antioxidant activity assessed as DPPH free radical scavenging activity incubated at 37 degC for 30 mins by microtiter plate reader based method. Format: physicochemical. A general note: Loss of DPPH colour is used to gauge radical scavenging.
Data set [2] can be described thus: Toxicity against human THP1 cells assessed as reduction in cell viability after 48 hrs by trypan blue dye exclusion method. The following applies: thp-1, 48 h. The class given is cell-based.
In a further data set the test system is Leishmania major. Nature of the data set: Antileishmanial activity against Leishmania major JISH118 promastigotes infected in human THP1 cells by Giemsa staining method. Format: functional, organism-based, THP-1. The following applies: for pIC50: Leishmania major, JISH118, THP-1, read-out: IC50; for IC50: thp-1.
Data set [3] is described as follows: Antiglycation activity using BSA assessed as inhibition of AGE formation incubated at 37 degC for 9 days by fluorescence assay. Format: physicochemical. As to conditions: for pIC50: read-out: IC50; call rule not given here.
A short description of data set [4]: Antioxidant activity assessed as superoxide anion radical scavenging activity by nitroblue tetrazolium method. Format: physicochemical.
The nature of data set [5]: Antiglycation activity using BSA assessed as inhibition of AGE formation incubated at 37 degC for 9 days by fluorescence assay relative to untreated control. Note: test concentration or dose not given here. Format: physicochemical. As to conditions: cattle, 216 h.

pIC50: −log10 of the molar value. A value given as a limit tells only on which side of the number the result lay.

Regarding `Cc1cccc2nc(-c3ccc(C(=O)N/N=C/c4cccc(O)c4O)cc3)[nH]c12`, the pIC50 (in general, the IC50 on a negative log10 scale, so that one unit is a factor of ten) in data set [1] was 4.92; in the data set with Leishmania major it was 4.42; in data set [3], 3.66; in data set [4], 4.09. The Activity result in data set [2] was “Non-toxic”.
Consider `Cc1cccc2nc(-c3ccc(C(=O)N/N=C/c4cc(O)ccc4O)cc3)[nH]c12`, for which the negative-log IC50 (pIC50) is 4.73 in data set [1], 3.69 in data set [3] and 4.06 in data set [4]. Also, the Activity result in data set [2] is on record as “Non-toxic”. The IC50 entry in the data set with Leishmania major is “Not Active”.
The like results for `Cc1cccc2nc(-c3ccc(C(=O)N/N=C/c4ccc(O)c(O)c4)cc3)[nH]c12` were, in that order, 4.85, 3.72, 4.09, “Non-toxic” and “Not Active”.
The like results for `Cc1cccc2nc(-c3ccc(C(=O)N/N=C/c4cc(O)cc(O)c4)cc3)[nH]c12` were, in that order, 4.76, 3.71, 4.05, “Non-toxic” and “Not Active”.
The like results for `Cc1cccc2nc(-c3ccc(C(=O)N/N=C/c4ccc(O)cc4O)cc3)[nH]c12` were, in that order, 4.56, 3.85, 4.04, “Non-toxic” and “Not Active”.
As to `Cc1cccc2nc(-c3ccc(C(=O)N/N=C/c4ccc(O)cc4)cc3)[nH]c12`, the pIC50 was 4.54 in data set [1], 3.82 in data set [3] and 4.00 in data set [4]. Also, in data set [2], the Activity entry is reported as “Non-toxic”. The IC50 entry with Leishmania major is on record as “Not Active”.
The like results for `COc1cc(/C=N/NC(=O)c2ccc(-c3nc4cccc(C)c4[nH]3)cc2)ccc1O` were, in that order, 4.58, 3.57, 3.98, “Non-toxic” and “Not Active”.
The like results for `Cc1cccc2nc(-c3ccc(C(=O)N/N=C/c4ccc(O)c(Br)c4)cc3)[nH]c12` were, in that order, 4.60, 3.46, 3.72, “Non-toxic” and “Not Active”.
For the compound `Cc1cccc2nc(-c3ccc(C(=O)N/N=C/c4ccccc4O)cc3)[nH]c12`, the results for the pIC50 in data set [1], in data set [3] and in data set [4] were 4.27, 3.42 and 3.68, respectively. For the same compound, in data set [2], the Activity entry is “Non-toxic”. Besides, the IC50 entry with Leishmania major was “Not Active”.
The like results for `COc1ccc(/C=N/NC(=O)c2ccc(-c3nc4cccc(C)c4[nH]3)cc2)c(O)c1` were, in that order, 4.32, 3.47, 3.69, “Non-toxic” and “Not Active”.
In the case of `Cc1cccc2nc(-c3ccc(C(=O)N/N=C/c4cccc(O)c4)cc3)[nH]c12`, the pIC50 is 4.22 in data set [1], 3.55 in data set [3] and 3.67 in data set [4]. Further, in data set [2], the Activity entry is on record as “Non-toxic”. Further, in the data set on Leishmania major, the IC50 entry was “Not Active”.
Take `COc1ccc(/C=N/NC(=O)c2ccc(-c3nc4cccc(C)c4[nH]3)cc2)c(I)c1O`: the pIC50 in data set [1] was 4.40; in data set [3], 3.39; in data set [4] it was 3.68. In addition, the Activity result in data set [2] is on record as “Non-toxic”. Also, the IC50 result in the data set on Leishmania major is “Not Active”.
With `COc1ccc(/C=N/NC(=O)c2ccc(-c3nc4cccc(C)c4[nH]3)cc2)cc1O`, the pIC50 in data set [1] was 4.31; in data set [3], 3.44; in data set [4], 3.65. Further, in data set [2], the Activity result is reported as “Non-toxic”. Besides, the IC50 result in the data set on Leishmania major is “Not Active”.
The like results for `COc1ccc(O)c(/C=N/NC(=O)c2ccc(-c3nc4cccc(C)c4[nH]3)cc2)c1` were, in that order, 4.13, 3.40, 3.67, “Non-toxic” and “Not Active”.
For `Cc1cccc2nc(-c3ccc(C(=O)N/N=C/c4ccc(F)cc4)cc3)[nH]c12`, the pIC50 in data set [1] was 4.04; in data set [4] it was 3.49. In data set [5], the “inhibition (INH)” value is given as under 50%. The Activity entry in data set [2] is on record as “Non-toxic”. In addition, the IC50 entry (with Leishmania major; in data set [3]) was “Not Active” in each case.
Take `Cc1cccc2nc(-c3ccc(C(=O)N/N=C/c4ccccn4)cc3)[nH]c12`: the pIC50 in data set [1] was 4.03; in data set [4], 3.46. Moreover, the “inhibition (INH)” value in data set [5] is given as under 50%. The Activity entry in data set [2] is reported as “Non-toxic”. The IC50 result (in the data set on Leishmania major; in data set [3]) was “Not Active” throughout.
Regarding `Cc1cccc2nc(-c3ccc(C(=O)N/N=C/c4cccnc4)cc3)[nH]c12`, the pIC50 was 3.98 in data set [1] and 3.51 in data set [4]. Further, the “inhibition (INH)” value in data set [5] is recorded as under 50%. The Activity result in data set [2] is listed as “Non-toxic”. Also, the IC50 result (in the data set with Leishmania major; in data set [3]) was “Not Active” throughout.
Consider `Cc1cccc2nc(-c3ccc(C(=O)N/N=C/c4ccncc4)cc3)[nH]c12`, for which the pIC50 was 4.05 in data set [1] and 3.47 in data set [4]. For the same compound, the “inhibition (INH)” value in data set [5] is recorded as under 50%. In data set [2], the Activity result is “Non-toxic”. Moreover, the IC50 result (in the data set with Leishmania major; in data set [3]) was “Not Active” each time.
As to `Cc1cccc2nc(-c3ccc(C(=O)N/N=C/c4ccc(Cl)cc4)cc3)[nH]c12`, the figures for the pIC50 in data set [1] and in data set [4] were 3.92 and 3.44, respectively. Further, in data set [5], the “inhibition (INH)” value is given as under 50%. The Activity entry in data set [2] is “Non-toxic”. Also, the IC50 result (in the data set with Leishmania major; in data set [3]) was “Not Active” throughout.
Take `Cc1cccc(/C=N/NC(=O)c2ccc(-c3nc4cccc(C)c4[nH]3)cc2)c1`: the pIC50 is 3.82 in data set [1] and 3.46 in data set [4]. Moreover, the “inhibition (INH)” value in data set [5] is given as under 50%. Further, in data set [2], the Activity entry is recorded as “Non-toxic”. Further, the IC50 entry (in the data set with Leishmania major; in data set [3]) was “Not Active” throughout.
For the compound `Cc1ccccc1/C=N/NC(=O)c1ccc(-c2nc3cccc(C)c3[nH]2)cc1`, the pIC50 in data set [1] is 3.80; in data set [4], 3.47. The “inhibition (INH)” value in data set [5] is listed as under 50%. Further, the Activity entry in data set [2] was “Non-toxic”. The IC50 result (with Leishmania major; in data set [3]) was “Not Active” each time.
For the compound `COc1ccc(/C=N/NC(=O)c2ccc(-c3nc4cccc(C)c4[nH]3)cc2)cc1`, the pIC50 in data set [1] is 3.85; in data set [4], 3.47. In data set [5], the “inhibition (INH)” value is under 50%. Also, in data set [2], the Activity entry is “Non-toxic”. Also, the IC50 entry (with Leishmania major; in data set [3]) was “Not Active” throughout.
On to `COc1cccc(/C=N/NC(=O)c2ccc(-c3nc4cccc(C)c4[nH]3)cc2)c1`, for which the pIC50 in data set [1] is 3.84; in data set [4], 3.46. For the same compound, the “inhibition (INH)” value in data set [5] is on record as under 50%. In data set [2], the Activity entry is “Non-toxic”. Besides, the IC50 result (in the data set with Leishmania major; in data set [3]) was “Not Active” each time.
For the compound `COc1ccc(/C=N/NC(=O)c2ccc(-c3nc4cccc(C)c4[nH]3)cc2)cc1OC`, the negative logarithm of the IC50 (pIC50) in data set [1] was 3.92; in data set [4], 3.48. Further, the “inhibition (INH)” value in data set [5] is recorded as under 50%. In addition, in data set [2], the Activity result is on record as “Non-toxic”. Further, the IC50 entry (in the data set with Leishmania major; in data set [3]) was “Not Active” in each case.
Regarding `Cc1cccc2nc(-c3ccc(C(=O)N/N=C/c4ccco4)cc3)[nH]c12`, the figures for the pIC50 in data set [1] and in data set [4] were 3.74 and 3.51, respectively. In addition, the “inhibition (INH)” value in data set [5] is on record as under 50%. The Activity result in data set [2] is on record as “Non-toxic”. Moreover, the IC50 entry (in the data set with Leishmania major; in data set [3]) was “Not Active” each time.
For the compound `Cc1cccc2nc(-c3ccc(C(=O)N/N=C/c4cccs4)cc3)[nH]c12`, the pIC50 in data set [1] was 3.96; in data set [4], 3.49. Also, in data set [5], the “inhibition (INH)” value is under 50%. Further, in data set [2], the Activity result was “Non-toxic”. The IC50 entry (in the data set with Leishmania major; in data set [3]) was “Not Active” in each case.
On to `COC(=O)c1ccc(/C=N/NC(=O)c2ccc(-c3nc4cccc(C)c4[nH]3)cc2)cc1`, for which the pIC50 in data set [1] is 3.80; in data set [3] it was 3.30; in data set [4], 3.49. The Activity result in data set [2] was “Non-toxic”. Besides, the IC50 result in the data set on Leishmania major is listed as “Not Active”.
As to `Cc1cccc2nc(-c3ccc(C(=O)N/N=C/c4ccc([N+](=O)[O-])cc4)cc3)[nH]c12`, the pIC50 in data set [1] was 3.86; in data set [3], 3.35; in data set [4], 3.51. Further, the Activity result in data set [2] is on record as “Non-toxic”. Besides, in the data set on Leishmania major, the IC50 entry is “Not Active”.
With `N=C(N)c1ccc(OCCCCCOc2ccc(C(=N)N)cc2)cc1` [PENTAMIDINE], in the data set with Leishmania major, the pIC50 was 5.15.
Take `CCCOC(=O)c1cc(O)c(O)c(O)c1` [PROPYL GALLATE]: the pIC50 in data set [1] is 4.52; in data set [4], 3.97.
`C[C@@H]1O[C@@H](OC[C@H]2O[C@@H](Oc3c(-c4ccc(O)c(O)c4)oc4cc(O)cc(O)c4c3=O)[C@H](O)[C@@H](O)[C@@H]2O)[C@H](O)[C@H](O)[C@H]1O` [RUTIN]: the pIC50 in data set [3] is 3.53.
